Results on 68 sequences are retold here after the supplement of paper PMC11208160.

The data set in a line: recombinant UMI read abundance after kanamycin selection (control-corrected) (log10(CPM+1)); higher = more efficient recombination; extreme values may be limits of the assay; sequences stand for … in AGTGCAGAGAAAATCGGCCAGTTTTCTCTGCCTGCAGTCCGCATGCCGTGGGACCCCTTGGGTTCTAACCTGTTGCCTAGATTTATGCAGCGGACTGCCTTTCTCCCAAAGTGATAAACCGG…AGGTTGGTTTCACT; site = the 11-nt donor. The method in brief:
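In a pooled Escherichia coli screen for the IS621 bridge recombinase, donor and donor-binding-loop pairs were each placed with a 12-nt UMI on a plasmid bearing a promoterless kanamycin gene. This library was co-electroporated with a target plasmid encoding a fixed target and T7-inducible recombinase, and cells were plated either on IPTG (0.07 mM) plus kanamycin or without selection, in two replicates each. Recombinant UMIs were PCR-amplified across the donor–target junction and sequenced, and counts were converted to CPM, averaged over replicates, scaled by control-derived factors and reported as log10(CPM+1).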
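Note: IS621 bridge recombinase in Escherichia coli cells against a fixed T5 target plasmid.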

In the case of “GTATGTACATGGACCGGTTTTCCCGGTAATCCGTATTTGAC (site GTACGTACTGT)”, the “recombinant UMI read abundance (log10)” value was found to be 2.5.
As to “GTATGTACATGGACCGGTTTTCCCGGTAATCCGTATTTGAC (site GTAGGTACTGT)”, the “recombinant UMI read abundance (log10)” value was determined as 0.95.
With “GTATGTACATGGACCGGTTTTCCCGGTAATCCGTATTTGAC (site GTATGTACTGT)”, the “recombinant UMI read abundance (log10)” value is 2.9.
For the sequence “GTATTAACATGGACCGGTTTTCCCGGTAATCCGTATTTGCA (site GTATTAACTTG)”, the “recombinant UMI read abundance (log10)” value amounted to 2.37.
As for “GTATTATCATGGACCGGTTTTCCCGGTAATCCGTATTTGTG (site GTATTATCTCA)”, the figure is 2.22; as for “GTATTCACATGGACCGGTTTTCCCGGTAATCCGTATTTGTA (site GTATACACTTA)”, 0.154.
For “GTATTCACATGGACCGGTTTTCCCGGTAATCCGTATTTGTA (site GTATCCACTTA)”, the “recombinant UMI read abundance (log10)” value amounted to 0.507.
As for “GTATTCACATGGACCGGTTTTCCCGGTAATCCGTATTTGTA (site GTATGCACTTA)”, the figure is 0.0233; as for “GTATTCACATGGACCGGTTTTCCCGGTAATCCGTATTTGTA (site GTATTCACTTA)”, 2.35; as for “GTATTGACATGGACCGGTTTTCCCGGTAATCCGTATTTGTG (site GTATTGACTCA)”, 1.4.
Consider “GTCAAAGCATGGACCGGTTTTCCCGGTAATCCGTATTTGGT (site GTCAAAGCTAC)”, for which the “recombinant UMI read abundance (log10)” value came to 2.11.
Regarding “GTCAACACATGGACCGGTTTTCCCGGTAATCCGTATTTGTC (site GTCAACACTGA)”, the “recombinant UMI read abundance (log10)” value amounted to 2.35.
As for “GTCAGATCATGGACCGGTTTTCCCGGTAATCCGTATTTGCG (site GTCAGATCTCG)”, the figure is 1.77; as for “GTCAGTGCATGGACCGGTTTTCCCGGTAATCCGTATTTGCA (site GTCAGTGCTTG)”, 2.49; as for “GTCCAGGCATGGACCGGTTTTCCCGGTAATCCGTATTTGTA (site GTCCAGGCTTA)”, 0.928.
Consider “GTCCTATCATGGACCGGTTTTCCCGGTAATCCGTATTTGGA (site GTCCTATCTTC)”, for which the “recombinant UMI read abundance (log10)” value is 1.41.
To “GTCCTTACATGGACCGGTTTTCCCGGTAATCCGTATTTGAG (site GTCCTTACTCT)” belongs 0.376; to “GTCGAACCATGGACCGGTTTTCCCGGTAATCCGTATTTGAC (site GTCGAACCTGT)”, 0.
For the sequence “GTCGAATCATGGACCGGTTTTCCCGGTAATCCGTATTTGGG (site GTCGAATCTCC)”, the “recombinant UMI read abundance (log10)” value is 0.914.
On to “GTCGAGTCATGGACCGGTTTTCCCGGTAATCCGTATTTGTT (site GTCGAGTCTAA)”, for which the “recombinant UMI read abundance (log10)” value worked out at 2.79.
With “GTCGGGACATGGACCGGTTTTCCCGGTAATCCGTATTTGGG (site GTCGGGACTCC)”, the “recombinant UMI read abundance (log10)” value came to 0.0114.
To “GTCGGGGCATGGACCGGTTTTCCCGGTAATCCGTATTTGGC (site GTCGGGGCTGC)” belongs 1.22.
As for “GTCGTAGCATGGACCGGTTTTCCCGGTAATCCGTATTTGCC (site GTCGTAGCTGG)”, the figure is 2.67.
To “GTCGTTGCATGGACCGGTTTTCCCGGTAATCCGTATTTGAA (site GTCGTTGCTTT)” belongs 2.14; to “GTCTATACATGGACCGGTTTTCCCGGTAATCCGTATTTGAC (site ATCTATACTGT)”, 0.841.
As for “GTCTATACATGGACCGGTTTTCCCGGTAATCCGTATTTGAC (site CTCTATACTGT)”, the “recombinant UMI read abundance (log10)” value came to 0.0424.
As for “GTCTATACATGGACCGGTTTTCCCGGTAATCCGTATTTGAC (site GTCTATACTGT)”, the figure is 2.33.
As for “GTCTATACATGGACCGGTTTTCCCGGTAATCCGTATTTGAC (site TTCTATACTGT)”, the figure is 1.01.
For “GTCTATTCATGGACCGGTTTTCCCGGTAATCCGTATTTGAC (site GTCTATTCTGT)”, the “recombinant UMI read abundance (log10)” value is 2.09.
As for “GTCTGATCATGGACCGGTTTTCCCGGTAATCCGTATTTGCG (site GTCTGATCTCG)”, the figure is 2.17.
As for “GTCTGATCATGGACCGGTTTTCCCGGTAATCCGTATTTGGG (site GTCTGATCTCC)”, the figure is 0.011; as for “GTCTGCACATGGACCGGTTTTCCCGGTAATCCGTATTTGTA (site GTATGCACTTA)”, 0.0171.
As to “GTCTGCACATGGACCGGTTTTCCCGGTAATCCGTATTTGTA (site GTCTGCACTTA)”, the “recombinant UMI read abundance (log10)” value came out at 1.44.
On to “GTCTGCACATGGACCGGTTTTCCCGGTAATCCGTATTTGTA (site GTGTGCACTTA)”, for which the “recombinant UMI read abundance (log10)” value is 0.0326.
As for “GTCTGCACATGGACCGGTTTTCCCGGTAATCCGTATTTGTA (site GTTTGCACTTA)”, the figure is 0.0829; as for “GTGAGAACATGGACCGGTTTTCCCGGTAATCCGTATTTGGC (site GTAAGAACTGC)”, 2.2.
To “GTGAGAACATGGACCGGTTTTCCCGGTAATCCGTATTTGGC (site GTCAGAACTGC)” belongs 0; to “GTGAGAACATGGACCGGTTTTCCCGGTAATCCGTATTTGGC (site GTGAGAACTGC)”, 1.49.
“GTGAGAACATGGACCGGTTTTCCCGGTAATCCGTATTTGGC (site GTTAGAACTGC)”: the “recombinant UMI read abundance (log10)” value worked out at 0.
As for “GTGAGGTCATGGACCGGTTTTCCCGGTAATCCGTATTTGCT (site GTGAGGTCTAG)”, the figure is 3.11; as for “GTGATTCCATGGACCGGTTTTCCCGGTAATCCGTATTTGCA (site GTGATTCCTTG)”, 1.09; as for “GTGATTCCATGGACCGGTTTTCCCGGTAATCCGTATTTGGA (site GTGATTCCTTC)”, 0.421.
“GTGATTCCATGGACCGGTTTTCCCGGTAATCCGTATTTGGT (site GTGATTCCTAC)”: the “recombinant UMI read abundance (log10)” value worked out at 0.318.
Take “GTGCCTACATGGACCGGTTTTCCCGGTAATCCGTATTTGGC (site GTGCCTACTGC)”: the “recombinant UMI read abundance (log10)” value was determined as 1.12.
Consider “GTGCTGACATGGACCGGTTTTCCCGGTAATCCGTATTTGTT (site GTGCTGACTAA)”, for which the “recombinant UMI read abundance (log10)” value came out at 0.314.
Consider “GTGCTTACATGGACCGGTTTTCCCGGTAATCCGTATTTGTA (site GTGCTTACTTA)”, for which the “recombinant UMI read abundance (log10)” value turned out to be 0.318.
Regarding “GTGGAGGCATGGACCGGTTTTCCCGGTAATCCGTATTTGCG (site GTGGAGGCTCA)”, the “recombinant UMI read abundance (log10)” value worked out at 1.56.
Take “GTGGAGGCATGGACCGGTTTTCCCGGTAATCCGTATTTGCG (site GTGGAGGCTCC)”: the “recombinant UMI read abundance (log10)” value is 0.392.
Take “GTGGAGGCATGGACCGGTTTTCCCGGTAATCCGTATTTGCG (site GTGGAGGCTCG)”: the “recombinant UMI read abundance (log10)” value stood at 2.28.
To “GTGGAGGCATGGACCGGTTTTCCCGGTAATCCGTATTTGCG (site GTGGAGGCTCT)” belongs 0.716; to “GTGGAGGCATGGACCGGTTTTCCCGGTAATCCGTATTTGTC (site GTGGAGGCTAA)”, 0.657.
As for “GTGGAGGCATGGACCGGTTTTCCCGGTAATCCGTATTTGTC (site GTGGAGGCTCA)”, the figure is 0.549; as for “GTGGAGGCATGGACCGGTTTTCCCGGTAATCCGTATTTGTC (site GTGGAGGCTGA)”, 2.67; as for “GTGGAGGCATGGACCGGTTTTCCCGGTAATCCGTATTTGTC (site GTGGAGGCTTA)”, 1.64.
For “GTGGAGGCATGGACCGGTTTTCCCGGTAATCCGTATTTGTG (site ATGGAGGCTCA)”, the “recombinant UMI read abundance (log10)” value was determined as 1.53.
To “GTGGAGGCATGGACCGGTTTTCCCGGTAATCCGTATTTGTG (site CTGGAGGCTCA)” belongs 0.921; to “GTGGAGGCATGGACCGGTTTTCCCGGTAATCCGTATTTGTG (site GAGGAGGCTCA)”, 0.602; to “GTGGAGGCATGGACCGGTTTTCCCGGTAATCCGTATTTGTG (site GCGGAGGCTCA)”, 0.6.
On to “GTGGAGGCATGGACCGGTTTTCCCGGTAATCCGTATTTGTG (site GGGGAGGCTCA)”, for which the “recombinant UMI read abundance (log10)” value was 0.
To “GTGGAGGCATGGACCGGTTTTCCCGGTAATCCGTATTTGTG (site GTAGAGGCTCA)” belongs 1.94; to “GTGGAGGCATGGACCGGTTTTCCCGGTAATCCGTATTTGTG (site GTCGAGGCTCA)”, 0.00904.
As for “GTGGAGGCATGGACCGGTTTTCCCGGTAATCCGTATTTGTG (site GTGAAGGCTCA)”, the figure is 1.1.
On to “GTGGAGGCATGGACCGGTTTTCCCGGTAATCCGTATTTGTG (site GTGCAGGCTCA)”, for which the “recombinant UMI read abundance (log10)” value came to 0.25.
To “GTGGAGGCATGGACCGGTTTTCCCGGTAATCCGTATTTGTG (site GTGGAAGCTCA)” belongs 2.56; to “GTGGAGGCATGGACCGGTTTTCCCGGTAATCCGTATTTGTG (site GTGGACGCTCA)”, 1.02.
To “GTGGAGGCATGGACCGGTTTTCCCGGTAATCCGTATTTGTG (site GTGGAGACTCA)” belongs 0.959.
Turning to “GTGGAGGCATGGACCGGTTTTCCCGGTAATCCGTATTTGTG (site GTGGAGCCTCA)”, the “recombinant UMI read abundance (log10)” value is 0.0109.
Consider “GTGGAGGCATGGACCGGTTTTCCCGGTAATCCGTATTTGTG (site GTGGAGGCTAA)”, for which the “recombinant UMI read abundance (log10)” value turned out to be 0.431.
